In patent US20130064812A1, “COMBINATION THERAPIES FOR HEMATOLOGIC MALIGNANCIES” (Gilead Calistoga LLC, priority 2011, published 2013):

Columns and labels:
[1] = test system: LB and INA-6 cells; assay: MM cell growth with IL-6 or IGF-1 ([3H]-thymidine); format: cell-based, human; conditions: 5.0 or 10 μM; IL-6 1 and 10 ng/ml, IGF-1 10 and 100 ng/mL
Protocol: DNA synthesis was determined by measuring [3H]-thymidine incorporation during the last 8 h of 72 h cultures. Data represent means (±SD) of triplicate cultures.

[2] = test system: patient MM cells
Protocol: All MM cell lines were cultured in RPMI1640 medium. Bone marrow stromal cells (BMSCs) were cultured in Dulbecco's modification of Eagle's medium (DMEM) (Sigma) containing 15% fetal bovine serum, 2 mM L-glutamine (Life Technologies), 100 U/mL penicillin, and 100 μg/mL streptomycin (Life Technologies). […] Patient MM and BM cells were obtained from BM samples after informed consent was obtained per the Declaration of Helsinki and approval by the Institutional Review Board of the Dana-Farber Cancer Institute (Boston, Mass.). BM mononuclear cells were separated using Ficoll-Paque™ density sedimentation, and plasma cells were purified (>95% CD138+) by positive selection with anti-CD138 magnetic activated cell separation micro beads (Miltenyi Biotec, Auburn, Calif.). Tumor cells were also purified from the BM of MM patients using the RosetteSep negative selection system (StemCell Technologies, Vancouver, BC, Canada).
Data represent mean±SD viability, assessed by MTT assay of triplicate cultures, expressed as percentage of untreated controls.

[3] = test system: FL cell lines; assay: PI3K signaling and apoptosis in follicular lymphoma cell lines; format: cell-based
[4] = test system: LB cells; assay: LB cell proliferation with or without BMSCs ([3H]-thymidine uptake); format: cell-based, human; conditions: 0.625 μM-10 μM, 48 hours, presence of BMSC
Protocol: Cell proliferation was assessed using [^3H]-thymidine uptake assay. All data represent mean (±SD) of triplicate experiment.

[5] = test system: mantle cell lymphoma lesions; assay: Lesion area in a patient with mantle cell lymphoma; format: in vivo, human; conditions: 50 mg BID oral, 28 days (1 cycle)
Protocol: This example provides data relating to the area of lesions of a patient with mantle cell lymphoma after 1 cycle of treatment (28 days) with the compound of formula I. The area of 6 lesions was measured prior to treatment and after a cycle of treatment. […] The results are summarized in a bar graph found in FIG. 12.

[6] = test system: AKT and ERK1/2; assay: AKT and ERK1/2 in HuVEC (immunoblot); format: cell-based, human; conditions: 8 h
Source text: Actin was used as a loading control.

[7] = test system: INA-6 and LB MM cells; assay: Autophagy / AVO development in MM cells; format: cell-based, human
Protocol: To detect and quantify AVOs in compound 1 or 3MA-treated cells, vital staining was performed for 15 min with acridine orange at a final concentration of 1 μg/ml. Samples were examined under a fluorescence microscope.
Autophagosome formation was defined by the accumulation of LC3; arrows indicate autophagosomes, FIG. 33A.
GAPDH served as a loading control.

[8] = target: PIP5Kα (Homo sapiens, UniProt Q99755); assay: InvitroGen Adapta kinase assay, PIP5Kα; format: biochemical; conditions: Other Phosphoinositide kinases; head prints no unit
Sequence of PIP5Kα (Q99755 whole entry): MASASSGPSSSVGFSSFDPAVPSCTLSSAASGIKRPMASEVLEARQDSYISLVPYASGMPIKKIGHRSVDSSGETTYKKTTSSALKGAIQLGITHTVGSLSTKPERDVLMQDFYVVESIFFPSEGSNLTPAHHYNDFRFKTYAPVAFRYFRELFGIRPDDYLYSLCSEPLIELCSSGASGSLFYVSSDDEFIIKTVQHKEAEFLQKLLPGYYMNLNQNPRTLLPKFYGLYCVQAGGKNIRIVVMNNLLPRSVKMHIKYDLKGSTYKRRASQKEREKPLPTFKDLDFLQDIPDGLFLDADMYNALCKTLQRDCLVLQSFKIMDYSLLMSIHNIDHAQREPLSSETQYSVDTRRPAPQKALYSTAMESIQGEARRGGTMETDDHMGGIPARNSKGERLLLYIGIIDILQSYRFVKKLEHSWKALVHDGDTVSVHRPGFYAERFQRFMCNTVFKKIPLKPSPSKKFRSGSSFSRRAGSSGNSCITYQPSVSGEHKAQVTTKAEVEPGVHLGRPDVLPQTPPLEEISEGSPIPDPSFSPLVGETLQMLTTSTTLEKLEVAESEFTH

[9] = test system: CLL cells on stromaNKTert; assay: Calcein-based adhesion assay of CLL cells on stroma; format: cell-based, human
Protocol: a confluent monolayer of CD154+L or StromaNKTert cells was generated by plating 1×10^4 cells/well in 96-well plates for 24 hours. Single cell suspensions of CLL cells at 0.5×10^6 cells/ml were then labeled with 1 μg/mL Calcein-AM (Invitrogen) for 1 hour. Cells were then spun down and treated with compound or vehicle for 1 to 24 hours. Non-adherent cells were washed off by aspiration. CLL cell adhesion was quantified by fluorimetry (Ex/Em=485/520 nm), and visualized directly using the Nikon TE2000 inverted live-cell imaging system.

[10] = test system: AKT and ERK pathways; assay: AKT and ERK pathway phosphorylation in MM cells (immunoblot); format: cell-based, human
Source text: Whole-cell lysates were subjected to sodium dodecyl sulfate-polyacrylamide gel electrophoresis (SDS-PAGE) separation, transferred to Pure Nitrocellulose membranes (Bio-Rad Laboratories, Hercules, Calif.), and immunoblotted with anti-AKT, phospho(p)-AKT (Ser473, Thr 308), ERK1/2, P-ERK1/2, P-PDK1, STAT, P-STAT, P-FKRHL, P-70S6K, LC3, and PI3K/p110α Abs (Cell Signaling Danvers, Mass.); anti-p110β, PI3K/p110δ, Glyceraldehyde 3-phosphate dehydrogenase (GAPDH), α-tubulin, and actin Abs (Santa Cruz Biotechnology, CA); and anti-p110γ Ab (Alexis, San Diego, Calif.): and anti-LC3 Ab (Abgent, San Diego, Calif.).
Actin Ab was used as a loading control. […] Whole cell lysates were subjected to immunoblotting using AKT, P-AKT (Ser473 and Thr308), ERK1/2, P-ERK1/2, P-PDK1, and P-FKRHL antibodies. α-tubulin is used as a loading control.

[11] = test system: CD19+ cells from CLL patients; assay: Surface CD40, CD86, CD20 on CD19+ CLL cells (flow cytometry); format: cell-based, human; conditions: 0.5 μM lenalidomide and/or 10 μM compound, 48 hours
Protocol: Antibodies to CD20, CD40, CD80, CD86 or IgG1 (BD Biosciences, San Jose Calif.) were surface stained.
To extend these findings, inhibition of PI3K-δ prevented lenalidomide was investigated to see whether it induced up-regulation of other co-stimulatory molecules important to B-cell antigen presentation. […] Surface expression of CD40 or CD86 was evaluated by flow cytometry using a CD40- or CD86-PE antibodies and IgG1-PE isotype control.
Internalization of CD20 was evaluated by quantifying surface expression of CD20 by flow cytometry using a CD20-PE antibodies and IgG1-PE isotype control.

[12] = test system: leukemia cell lines; assay: cells; format: cell-based; conditions: for apoptosis in leukemia cell lines: 1 μM or 10 μM, 24 hrs; for cellular viability of leukemia cell lines: 24 hours
Protocol: Proliferation assays (AlamarBlue®) on ALL cell lines grown in the presence of 10% FBS serum and measurements were taken at 24 hrs. Proliferation was measured in triplicate wells in 96-well plates.
The percentage of apoptotic cells was determined by Annexin V-FITC/7AAD staining.

[13] = test system: CLL cells with purified B-cells; assay: IgM production by B-cells cultured with treated CLL cells (ELISA); format: cell-based, human; conditions: 0.5 μM lenalidomide and/or 10 μM compound, 48 hours, N=6; p<0.0001
Protocol: Quantization of IgM was determined. Briefly, lenalidomide-treated or vehicle control-treated CLL cells, were irradiated and placed in culture with target, purified B-cells, in the absence or presence of PWM ([…]).
Given the importance of the CD40-CD154 axis for lenalidomide-treated CLL cells to promote normal B-cells to produce immunoglobulin, the compound of formula I was assessed to see whether it could prevent this occurrence. […] CLL cells were irradiated (20 Gy) and placed in culture with purified B-cells, in the absence or presence of 5 μg/mL PWM. Quantification of IgM was determined by ELISA analysis.

CC[C@H](Nc1ncnc2[nH]cnc12)c1nc2cccc(F)c2c(=O)n1-c1ccccc1 [Compound I, 5-fluoro-3-phenyl-2-[1-(9H-purin-6-ylamino)-propyl]-3H-quinazolin-4-one]
growth inhibition in the presence of IL-6 or IGF-1 [1]: Neither IL-6 nor IGF-1 protected against the growth inhibition
cytotoxicity against patient MM cells [2]: induced cytotoxicity against patient MM cells
pAkt, Akt, pS6 and S6 in FL cell lines [3]: reduction in the production of pAkt, Akt, pS6 and S6
cleavage of PARP and Caspase-3 in FL cell lines ([3]; 24 hours, 0.1 μM and 0.5 μM): Cleavage of PARP and Caspase-3 is observed
LB cell growth [4]: LB cell growth is reduced
decrease in tumor burden [5]: 44%
phosphorylation and expression of AKT and ERK1/2 in HuVEC [6]: markedly down regulated
LC3 staining ([7]; 5 μM, 6 h, INA-6 and LB): markedly increased LC 3 staining
LC3-II and Beclin1 protein ([7]; INA-6, 6 h): markedly increased LC3-II and Beclin1 protein
acidic vesicular organelle (AVO) development ([7]; acridine orange staining, LB and INA-6): development of AVOs
IC50 [8]: > 1000 nM
CLL cell adherence to stroma at one hour [9]: reduced adherence of CLL cells was detectable
CLL cell adherence to stroma at 24 hours ([9]; 10 μM): exhibited less adherent at 24 hours
phosphorylation of PDK-1 and FKHRL ([10]; INA-6 and LB, 0-6 hours): significantly inhibited phosphorylation of upstream PDK-1 and downstream FKHRL
phosphorylation of AKT or ERK, MM.1S cells ([10]; low expression of P110δ, 0-5.0 μM, 6 hours): did not affect phosphorylation of AKT or ERK
phosphorylation of AKT and ERK1/2, INA-6 cells ([10]; p110δ positive, 12 h): significantly blocked phosphorylation of AKT and ERK1/2
internalization of CD20 ([11]; N=5, p=0.0057): prevented this effect
surface expression of CD40 and CD86 ([11]; N=25, p=0.0102 and <0.0001): prevent the up-regulation of CD40 and CD86 induced by lenalidomide
apoptosis in leukemia cell lines [12]: increase in apoptosis in the treated cells
apoptosis in leukemia cell lines ([12]; listed as compound I): induces apoptosis in leukemia cell lines
cytotoxicity at 10 µM ([12]; 24 h, read-out: reduction of viability): 40 to 50%
cellular viability of leukemia cell lines [12]: strongly affected by 5-10 micromolar concentrations
cellular viability of leukemia cell lines ([12]; listed as compound I): reduces cellular viability in a dose dependent manner
production of IgM [13]: completely prevent production of IgM
